These results are taken from patent US20160002141A1, “SYNTHESIS OF CALEBIN-A AND ITS BIOLOGICALLY ACTIVE ANALOGS” (priority 2014, published 2016).

The term melting point denotes the temperature of the solid-liquid transition.

The structures appear in SMILES notation.

For `O=C(/C=C/c1ccc(O)cc1)COC(=O)/C=C/c1ccc(O)cc1` [Example 10d, 4-Hydroxycinnamoylmethyl 4-hydroxycinnamate], the melting point fell in the range of 289 to 291 °C.
For `COc1cc(/C=C/C(=O)OCC(=O)/C=C/c2ccc(O)cc2)ccc1O` [Example 10c, 4-Hydroxycinnamoylmethyl ferulate], the melting point lay within 175.7 to 177.7 °C.
For the compound `COc1cc(/C=C/C(=O)COC(=O)/C=C/c2ccc(O)cc2)ccc1O` [Example 10b, Feruloylmethyl 4-hydroxycinnamate], the melting point lay within 181.4 to 183.4 °C.
The value for `COc1cc(/C=C/C(=O)COC(=O)/C=C/c2ccc(O)c(OC)c2)ccc1O` [Example 10a, Feruloylmethyl ferulate] was 138 to 140 °C.
